How the values were obtained:
[1] = biological target: glucosylceramide synthase (Homo sapiens (Human), UniProt Q16739); assay: Glucosylceramide synthase activity microsomal assay; format: biochemical; conditions: microsomes from A375 human melanoma cells; read-out: GCS IC50
Excerpt: (§1) Inhibition of glucosylceramide synthase activity can be measured with one or more assays. A first assay is a microsomal assay that directly measures the conversion of ceramide to glucosylceramide by HPLC. Microsomes are a source of glucosylceramide synthase activity in the microsomal assay. A second assay is a cell based, phenotypic assay that monitors cell surface expression of the downstream lipid GM3 by antibody mediated immunofluorescence. Specific protocols are provided below.
An enzyme assay using microsomes as a source of glucosylceramide synthase activity. Fluorescent ceramide substrate is delivered to membrane-bound enzyme as a complex with albumin. After reaction, ceramide and glucosylceramide are separated and quantitated by reverse-phase HPLC with fluorescence detection. Enzymatic activity is assessed using a fluorescent labeled substrate and microsomes as a source of glucosylceramide synthase. C6-NBD-Ceramide is complexed with albumin for delivery to microsomes that are isolated according to the procedure described below. The final concentration of C6-NBD-Ceramide in the stock solution is 0.5 mM; the final concentration of BSA is 0.5 mM. Separation and quantitation of substrate and product (glucosylceramide) are achieved by reverse-phase HPLC with fluorescence detection.
Microsomes are isolated from A375 human melanoma cells. Eight to ten million cells are harvested by trypsinization and washed with ice cold PBS. Cells are resuspended in ice-cold lysis buffer containing protease inhibitors. Cell lysate is sonicated on ice using a probe sonicator. After sonication, the cell lysate is separated from debris by centrifugation at 10,000 g for 10 minutes at 4° C. The supernatant is removed and cleared by additional centrifugation at 100,000 g for 1 hour at 4° C. The pellet is then resuspended in the lysis buffer, aliquoted, and stored at −80° C. prior to use.
The reaction is stopped by the addition of 150 μL of 100 μM C8-ceramide in 50% aq. isopropanol; 10 μL of the final mix is analyzed on HPLC (with fluorescence detector). […] Fluorescence is detected with λex=470 nm and λem=530 nm. […] Both peaks are separated from each other and the baseline and were integrated automatically by the HPLC software. The percent conversion of substrate to product is used as the readout for inhibitor testing. […]

[2] = tested on: GM3 expression in B16 mouse melanoma cells; assay: GM3 fluorescent-linked immunosorbent assay (FLISA), B16; format: cell-based; conditions: 48 hours
Excerpt: as §1
(§2) This is a phenotypic assay that measures GM3 expression in B16 mouse melanoma or C32 human melanoma cells following treatment with test compounds. Cell surface GM3 expression is determined by antibody mediated fluorescence.
(§3) Compounds are diluted in media and plated in 384 well plates in DMSO. B16 and C32 cells are assayed at densities of 20,000 cells/ml and 62,500 cells/ml, respectively, per well. Each titration curve contains 10 points that are assayed in duplicate on each test run. The plates are incubated for 48 hours at 37° C., 5% CO2, and are then washed once with TBS. Anti-GM3 antibody is added to each well and the plates are then incubated for an additional one hour at room temperature. Plates are subsequently washed twice and incubated for an additional hour with the labeled secondary antibody. Following the final incubation, the plates are washed twice and the fluorescence at λex=D640/20 nm and λem=657 nm is detected on a fluorescent reader.
(§4) The results of the microsomal assays are expressed as “GCS IC50,” which represents the concentration of the compound causing 50% inhibition of glucosylceramide synthase activity. The results of the cell-based assays are expressed as “GM3 B16 IC50” or “GM3 C32 IC50” for the B16 assay and the C32 assay, respectively. These values represent the concentration of the compound causing 50% inhibition of GM3 expression on the cell surface.

[3] = tested on: GM3 expression in C32 human melanoma cells; assay: GM3 fluorescent-linked immunosorbent assay (FLISA), C32; format: cell-based; conditions: 48 hours
Excerpt: as §1, §2, §3, §4

[4] = tested on: neurological manifestations of GD-3; conditions: cited from earlier work

Chain of glucosylceramide synthase (Q16739 whole entry): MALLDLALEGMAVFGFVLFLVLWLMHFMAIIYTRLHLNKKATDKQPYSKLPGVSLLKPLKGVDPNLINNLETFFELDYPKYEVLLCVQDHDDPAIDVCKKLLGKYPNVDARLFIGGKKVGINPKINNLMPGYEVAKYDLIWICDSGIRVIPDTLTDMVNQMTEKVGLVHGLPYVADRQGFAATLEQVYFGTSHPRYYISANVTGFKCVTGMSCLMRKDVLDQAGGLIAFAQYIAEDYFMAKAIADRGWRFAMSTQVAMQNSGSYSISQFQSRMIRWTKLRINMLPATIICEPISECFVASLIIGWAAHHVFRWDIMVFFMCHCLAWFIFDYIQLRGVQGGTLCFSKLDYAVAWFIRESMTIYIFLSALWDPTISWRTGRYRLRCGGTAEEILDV

Structure (SMILES) | IC50 [1] [µM] | IC50 [2] [µM] | IC50 [3] [µM] | treatment of the neurological manifestations of GD-3 ([4]; clinical trials) | crossing of the blood-brain barrier ([4]; human, in vivo)
COCCOc1ccc(-c2ccc(C(C)(C)NC(=O)O[C@@H]3CN4CCC3CC4)cc2)cc1 [Compound 3, (S)-quinuclidin-3-yl (2-(4′-(2-methoxyethoxy)-[1,1′-biphenyl]-4-yl)propan-2-yl)carbamate] | 4.14 | 43.7 | 1.31 |  | 
COCCCOc1ccc(-c2nc(C(C)(C)NC(=O)OC3CN4CCC3CC4)cs2)cc1 (centres unmarked) [Compound 19, Quinuclidin-3-yl (2-(2-(4-(3-methoxypropoxy)phenyl)thiazol-4-yl)propan-2-yl)carbamate] | 170 | 197 | 42.6 |  | 
CC(C)(NC(=O)OC1CN2CCC1CC2)c1csc(-c2ccc(F)cc2)c1 (centres unmarked) [Compound 10, Quinuclidin-3-yl 2-(5-(4-fluorophenyl)thiophen-3-yl)propan-2-ylcarbamate] | 6.4 | 21.3 | 2.2 |  | 
O=C(NC1(c2ccc(-c3ccc(F)cc3F)cc2)CC1)O[C@@H]1CN2CCC1CC2 [Compound 8, (S)-1-azabicyclo[2.2.2]oct-3-yl [1-(2′,4′-difluorobiphenyl-4-yl)cyclopropyl]carbamate] | 1 | 7.5 | 0.4 |  | 
COCCOc1ccc(-c2nc(C(C)(C)NC(=O)OC3CN4CCC3CC4)cs2)cc1 (centres unmarked) [Compound 20, Quinuclidin-3-yl (2-(2-(4-(2-methoxyethoxy)phenyl)thiazol-4-yl)propan-2-yl)carbamate] | 360 | 106 | 19.8 |  | 
COCCOc1cccc(-c2ccc(C(C)(C)NC(=O)O[C@@H]3CN4CCC3CC4)cc2)c1 [Compound 14, (S)-quinuclidin-3-yl (2-(3′-(2-methoxyethoxy)-[1,1′-biphenyl]-4-yl)propan-2-yl)carbamate] | 10.4 | 110 | 5.3 |  | 
CC(C)(NC(=O)O[C@@H]1CN2CCC1CC2)c1cc(-c2ccc(F)cc2)ns1 [Compound 11, (S)-quinuclidin-3-yl 2-(3-(4-fluorophenyl)isothiazol-5-yl)propan-2-ylcarbamate] | 14.9 | 81.9 | 1.8 |  | 
COCCOc1ccc(-c2ccc(C(C)(C)NC(=O)OC3CN4CCC3CC4)nc2)cc1 (centres unmarked) [Compound 21, Quinuclidin-3-yl 2-(5-(4-(2-methoxyethoxy)phenyl)pyridin-2-yl)propan-2-ylcarbamate] | 50.6 | 266 | 11.1 |  | 
CCCCN1C[C@H](O)[C@@H](O)[C@H](O)[C@H]1CO [miglustat] |  |  |  | ineffective | does cross the blood-brain barrier
CC(C)(NC(=O)OC1CN2CCC1CC2)c1ccc(-c2ccc(CO)cc2)cc1 (centres unmarked) [Compound 17, Quinuclidin-3-yl (2-(4′-(hydroxymethyl)-[1,1′-biphenyl]-4-yl)propan-2-yl)carbamate] | 454 | 879 | 21.6 |  | 
CC(C)(NC(=O)OC1CN2CCC1CC2)c1ccc(-c2ccc(OCCCC#N)cc2)cc1 (centres unmarked) [Compound 22, Quinuclidin-3-yl (2-(4′-(3-cyanopropoxy)-[1,1′-biphenyl]-4-yl)propan-2-yl)carbamate] | 9.6 | 86.5 | 3.2 |  | 
CC(C)(NC(=O)OC1CN2CCC1CC2)c1ccc(-c2ccc(OCC#N)cc2)cc1 (centres unmarked) [Compound 23, Quinuclidin-3-yl (2-(4′-(cyanomethoxy)-[1,1′-biphenyl]-4-yl)propan-2-yl)carbamate] | 2.6 | 47.7 | 0.8 |  | 
CC(C)(NC(=O)OC1CN2CCC1CC2)c1ccc(-c2ccc(CCO)cc2)cc1 (centres unmarked) [Compound 18, Quinuclidin-3-yl (2-(4′-(2-hydroxyethyl)-[1,1′-biphenyl]-4-yl)propan-2-yl)carbamate] | 148 | 656 | 22.3 |  | 
COCCOc1ccc(-c2cccc(C(C)(C)NC(=O)OC3CN4CCC3CC4)c2)cc1 (centres unmarked) [Compound 15, Quinuclidin-3-yl (2-(4′-(2-methoxyethoxy)-[1,1′-biphenyl]-3-yl)propan-2-yl)carbamate] | 26.7 | 29.5 | 4.9 |  | 
COc1ccc(-c2ccc(C3(NC(=O)OC4CN5CCC4CC5)CC3)cc2)cc1 (centres unmarked) [Compound 9, 1-azabicyclo[2.2.2]oct-3-yl [1-(4′-methoxybiphenyl-4-yl)cyclopropyl]carbamate] | 1.4 | 16.8 | 0.4 |  | 
O=C(NC1(c2ccc(-c3ccc(F)cc3)cc2)CC1)O[C@@H]1CN2CCC1CC2 [Compound 7, (S)-quinuclidin-3-yl 1-(4′-fluorobiphenyl-4-yl)cyclopropylcarbamate] | 1.4 | 8.1 | 0.4 |  | 
CC(C)(NC(=O)OC1CN2CCC1CC2)c1cccc(-c2ccccc2)c1 (centres unmarked) [Compound 4, 1-azabicyclo[2.2.2]oct-3-yl [2-(biphenyl-3-yl)propan-2-yl]carbamate] | 1.5 | 11.6 | 0.8 |  | 
CC(C)(NC(=O)OC1CN2CCC1CC2)c1cccc(-c2ccc(F)cc2)c1 (centres unmarked) [Compound 1, Quinuclidin-3-yl (2-(4′-fluoro-[1,1′-biphenyl]-3-yl)propan-2-yl)carbamate] | 1.9 | 15.6 | 2.1 |  | 
CC(C)(NC(=O)O[C@@H]1CN2CCC1CC2)c1nc(-c2ccc(F)cc2)cs1 [Compound 12, (S)-quinuclidin-3-yl 2-(4-(4-fluorophenyl)thiazol-2-yl)propan-2-ylcarbamate] | 20.3 | 87.8 | 3.7 |  | 
COCCCOc1ccc(-c2ccc(C(C)(C)NC(=O)OC3CN4CCC3CC4)cc2)cc1 (centres unmarked) [Compound 16, Quinuclidin-3-yl (2-(4′-(3-methoxypropoxy)-[1,1′-biphenyl]-4-yl)propan-2-yl)carbamate] | 2.4 | 66.6 | 1.6 |  | 
COCCOc1ccc(-c2ccc(C(C)(C)NC(=O)OC3CN4CCC3CC4)cc2)cc1 (centres unmarked) [Compound 13, Quinuclidin-3-yl (2-(4′-(2-methoxyethoxy)-[1,1′-biphenyl]-4-yl)propan-2-yl)carbamate] | 3.5 | 38.6 | 0.7 |  | 
CC(C)(NC(=O)O[C@@H]1CN2CCC1CC2)c1ccc(-c2ccccc2)cc1 [Compound 5, (S)-quinuclidin-3-yl 2-(biphenyl-4-yl)propan-2-ylcarbamate] | 1.2 | 19.3 | 0.3 |  | 
O=C(NC1(c2ccc(-c3ccccc3)cc2)CC1)OC1CN2CCC1CC2 (centres unmarked) [Compound 6, Quinuclidin-3-yl 1-(biphenyl-4-yl)cyclopropylcarbamate] | 2.8 | 18.1 | 0.6 |  | 
